According to paper PMC11883664, “Expansion of the diversity of dispersin scaffolds” (Acta Crystallographica Section D: Structural Biology, 2025):

Tests used:
[1] = target: T1, DispSf; experiment: ITC; assay type: binding, Mammaliicoccus fleurettii
T1 construct: mature polypeptide with polyhistidine tag

[2] = target: T2, DispTs2 (Terribacillus saccharophilus, UniProt A0A075LPR4); experiment: ITC and crystal structure ([…] Å); assay type: binding
T2 construct: gene GZ22_15930; mature polypeptide with polyhistidine tag

[3] = target: T3, DispLp (Lactiplantibacillus paraplantarum, UniProt A0AAD0TQY4); experiment: crystal structure ([…] Å) and ITC; assay type: binding
T3 construct: gene LP667_05900; mature polypeptide with polyhistidine tag
T3 sequence (A0AAD0TQY4 31-361): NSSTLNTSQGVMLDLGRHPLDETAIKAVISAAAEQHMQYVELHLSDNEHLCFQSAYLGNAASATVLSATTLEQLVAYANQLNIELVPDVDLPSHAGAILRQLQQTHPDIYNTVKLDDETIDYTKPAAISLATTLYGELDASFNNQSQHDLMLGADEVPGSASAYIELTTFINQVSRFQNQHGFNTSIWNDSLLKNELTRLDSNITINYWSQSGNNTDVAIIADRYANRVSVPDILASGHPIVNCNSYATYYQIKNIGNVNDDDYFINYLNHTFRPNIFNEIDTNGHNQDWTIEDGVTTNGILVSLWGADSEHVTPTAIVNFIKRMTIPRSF

[4] = target: T2, DispTs2; experiment: crystal structure by soaking ([…] Å); only the NAG-thiazoline unit (NGT) modelled; assay type: binding
[5] = substrate: CC(=O)N[C@H]1[C@H](Oc2ccc3c(C)cc(=O)oc3c2)O[C@H](CO)[C@@H](O)[C@@H]1O; experiment: purified protein

CC(=O)N[C@H]1CN2CC[C@H](O)[C@@H]2[C@@H](O)[C@@H]1O [6-Ac-Cas, 6-acetamido-6-deoxy-castanospermine]
Kd [1]: 15 µM
Kd [2]: 6 µM
Kd [3]: 1.12 mM

CC(=O)N[C@H]1[C@H](OC[C@H]2O[C@@H]3SC(C)=N[C@@H]3[C@@H](O)[C@@H]2O)O[C@H](CO)[C@@H](O)[C@@H]1O [di-NAG-thiazoline, GlcNAc-β(1,6)-GlcNAc-thiazoline]
crystal structure by soaking (2.17 Å); only the NAG-thiazoline unit (NGT) modell [4]: The electron density for the first unit of di-NAG-thiazoline (corresponding to GlcNAc-thiazoline, NGT in the PDB dictionary) was well defined

B1: DispTs2 (Terribacillus saccharophilus) (protein)
chain: QDQEKGITIDISRKYYSIKTLKAIVDEISANGGDYLQLHFSDNESYAIASEFLGQNSENPNSAYLTKKELLSLIAYSNDRNIMVIPDIDLPAHSKGWLNIMKEKDSGLYTDIVTDYSEDTLDYHNNAVALYTANQLLDEVLDLFYQPKFAGKQRIVLGGDEVPGSGAHQTDFIRFMNQIAKTAKASNYEPQMWNDSITPEGIQNLDRSFSILYWKQSTLSNGAQSLDVQDFEENGLSVYNYNAYSLYFLPSTRFTQEDITEQIDYMKWAYAYNKFFYISDYYKQVDTPNVKGSSLVFWGEHANDLSQERLLKQEKPLIQNFLGL
Km [5]: 2.5 ± 0.1 mM
